Measured values reported in patent US10744205B2, “Antibody drug conjugates of kinesin spindel protein (KSP) inhibitors with anti-CD123-antibodies” (Bayer Pharma Aktiengesellschaft, priority 2015, dated 2020).

How the values were obtained:
[1] = system: NCI-H292: human mucoepidermoid lung carcinoma cells; experiment: Cytotoxicity of metabolites, MTT assay, NCI-H292; assay type: cell-based; details: growth inhibition, 96 h incubation
Description: The analysis of the cytotoxic effects of the anti-CD123 ADCs and the corresponding metabolites was carried out with various cell lines:
NCI-H292: human mucoepidermoid lung carcinoma cells, ATCC-CRL-1848, standard medium: RPMI 1640 (Biochrom; # FG1215, stab. glutamine)+10% FCS (Biochrom; # S0415).
The cells were cultivated by the standard method as stated by the American Tissue Culture Collection (ATCC) or the Leibniz-Institut DSMZ-Deutsche Sammlung von Mikroorganismen und Zellkulturen GmbH (DSMZ) for the cell lines in question.
The cells were cultivated according to the standard method using the growth media listed under C-1. The test is carried out by detaching the cells with a solution of Accutase in PBS (Biochrom AG # L2143), pelleting, resuspending in culture medium, counting and sowing into a 96-well culture plate with white bottom (Costar #3610) (NCI H292: 2500 cells/well; MOLM-13: 2000 cells/well; THP-1: 8000 cells/well; KG-1: 5000 cells/well in a total volume of 100 μl). The cells were then incubated in an incubator at 37° C. and 5% carbon dioxide. After 48 h, the medium was replaced.
The antibody drug conjugates or the metabolites in 10 μl of culture medium in concentrations from 10^−5M to 10^−13M were then pipetted to the cells (in triplicate), and the assay was then incubated in an incubator at 37° C. and 5% carbon dioxide. […] To this end, the MTT reagent was incubated with the cells for 4 h, followed by lysis of the cells overnight by addition of the detergent. The dye formed was detected at 570 nm (Infinite M1000 pro, Tecan). The measured data were used to calculate the IC50 of the growth inhibition using the DRC (dose response curve).
The proliferation of cells which were not treated with test substance but were otherwise identically treated was defined as the 100% figure.
Table 2 below lists the IC50 values of representative working examples from the assay described and the corresponding cytotoxicity data (MTT assay).

KPL4 = experiment: Cytotoxicity of metabolites, MTT assay, KPL4; assay type: cell-based
[2] = target: T1, motor domain of the human kinesin spindle protein KSP/Eg5 (Homo sapiens, UniProt P52732); experiment: Inhibition of the kinesin spindle protein KSP/Eg5 (ATPase activity, malachite green); assay type: biochemical; details: 10 nM KSP/Eg5, microtubuli, 500 μM ATP, 2 h at RT
T1 construct: The motor domain of the human kinesin spindle protein KSP/Eg5; purchased tebu-bio/Cytoskeleton Inc 027EG01-XL
T1 sequence (P52732 18-359 limits assumed): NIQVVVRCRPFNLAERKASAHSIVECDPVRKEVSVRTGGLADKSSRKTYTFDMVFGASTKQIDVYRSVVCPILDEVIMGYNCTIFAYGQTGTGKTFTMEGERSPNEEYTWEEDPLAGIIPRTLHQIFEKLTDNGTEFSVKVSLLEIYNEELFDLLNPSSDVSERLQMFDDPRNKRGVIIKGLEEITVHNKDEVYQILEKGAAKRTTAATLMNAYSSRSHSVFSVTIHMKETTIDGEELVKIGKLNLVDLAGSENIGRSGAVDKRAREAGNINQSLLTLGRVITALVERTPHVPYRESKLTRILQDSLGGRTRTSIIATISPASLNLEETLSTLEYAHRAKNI
Description: C-1b Determination of the Inhibition of the Kinesin Spindle Protein KSP/Eg5 by Selected Examples
The motor domain of the human kinesin spindle protein KSP/Eg5 (tebu-bio/Cytoskeleton Inc, No. 027EG01-XL) was incubated in a concentration of 10 nM with microtubuli (bovine or porcine, tebu-bio/Cytoskeleton Inc) stabilized with 50 μg/ml taxol (Sigma No. T7191-5MG) for 5 min at RT in 15 mM PIPES, pH 6.8 (5 mM MgCl2 and 10 mM DTT, Sigma). […] Incubation was at RT for 2 h. ATPase activity was detected by detecting the inorganic phosphate formed using malachite green (Biomol). […] The positive controls used were monastrol (Sigma, M8515-1 mg) and ispinesib (AdooQ Bioscience A10486). The individual data of the dose-activity curve are eight-fold determinations. The IC50 values are means of two independent experiments.

[3] = Cell permeability, flux assay using Caco-2 cells; assay type: in vitro ADME; details: human
Caco-2 cells = experiment: Cell permeability, flux assay using Caco-2 cells; assay type: in vitro ADME; details: Caco-2, B to A, 2 hours

Question: For CC(C)(C)[C@H](c1cc(-c2cc(F)ccc2F)cn1Cc1ccccc1)N(CC[C@H](N)C(=O)NCCNC(=O)CN1C(=O)CC(SC[C@H](N)C(=O)O)C1=O)C(=O)CO (stereo partly drawn) [Example M1, S-[1-(2-{[2-({(2S)-2-Amino-4-[{(1R)-1-[1-benzyl-4-(2,5-difluorophenyl)-1H-pyrrol-2-yl]-2,2-dimethylpropyl}(glycoloyl)amino]butanoyl}amino)ethyl]amino}-2-oxoethyl)-2,5-dioxopyrrolidin-3-yl]-L-cysteine/trifluoroacetic acid (1:1)], which IC50 ([1]; Homo sapiens, NCI-H292, 96 h) is on record?
Answer: Its IC50 is at least 0.5 µM.

Question: And the IC50 (KPL4; KPL4, growth inhibition)?
Answer: Its IC50 is at least 0.5 µM.

Question: What does the source list for CC(C)(C)[C@H](c1cc(-c2cc(F)ccc2F)cn1Cc1ccccc1)N(CCCN)C(=O)CSC[C@H](NC(=O)CCOCCOCCOCCOCCNC(=O)CNC(=O)[C@H](CC(=O)O)SC[C@H](N)C(=O)O)C(=O)O.O=C(O)C(F)(F)F.O=C(O)C(F)(F)F [Example M21, (2R,24S,27R)-27-Amino-2-[({2-[(3-aminopropyl){(1R)-1-[1-benzyl-4-(2,5-difluorophenyl)-1H-pyrrol-2-yl]-2,2-dimethylpropyl}amino]-2-oxoethyl}sulphanyl)methyl]-24-(carboxymethyl)-4,20,23-trioxo-7,10,13,16-tetraoxa-25-thia-3,19,22-triazaoctacosane-1,28-dioic acid trifluoroacetic acid (1:2)]?
Answer: IC50 [2]: 0.00231 µM; Papp B→A at 2 h ([3]; Caco-2, B to A, 2 hours): 0.5 nm/s; efflux ratio at 2 h ([3]; Caco-2, ratio of Papp (B-A) to Papp (A-B)): 1.5

Question: With CC(C)(C)[C@H](c1cc(-c2cc(F)ccc2F)cn1Cc1ccccc1)N(CC[C@H](N)C(=O)NCCC(=O)N[C@@H](CCC(=O)O)C(=O)O)C(=O)CO [Example M23, N-{(2S)-2-Amino-4-[{(1R)-1-[1-benzyl-4-(2,5-difluorophenyl)-1H-pyrrol-2-yl]-2,2-dimethylpropyl}(glycoloyl)amino]butanoyl}-beta-alanyl-L-glutamic acid/trifluoroacetic acid (1:1)] as the molecule, how does the IC50 ([1]; Homo sapiens, NCI-H292, 96 h) read?
Answer: The IC50 was at least 0.5 µM.

Question: What about the IC50 (KPL4; KPL4, growth inhibition) of the same molecule?
Answer: Its IC50 is at least 0.5 µM.

Question: With CC(C)(C)[C@H](c1cc(-c2cc(F)ccc2F)cn1Cc1ccccc1)N(CC[C@H](N)C(=O)NCCC(=O)N[C@H](CCC(=O)O)C(=O)O)C(=O)CO [Example M24, N-{(2S)-2-Amino-4-[{(1R)-1-[1-benzyl-4-(2,5-difluorophenyl)-1H-pyrrol-2-yl]-2,2-dimethylpropyl}(glycoloyl)amino]butanoyl}-beta-alanyl-D-glutamic acid/trifluoroacetic acid (1:1)] as the molecule, how does the IC50 (KPL4; KPL4, growth inhibition) read?
Answer: The IC50 was at least 0.5 µM.

Question: Which results are given for “(1R,4R,27R,33R)-1-Amino-32-(3-aminopropyl)-33-[1-benzyl-4-(2,5-difluorophenyl)-1H-pyrrol-2-yl]-34,34-dimethyl-6,9,25,31-tetraoxo-13,16,19,22-tetraoxa-3,29-dithia-7,10,26,32-tetraazapentatriacontane-1,4,27-tricarboxylic acid/trifluoroacetic acid (1:2) [Example M20]”?
Answer: IC50 [1]: 0.149 µM; IC50 (KPL4; growth inhibition): 0.213 µM

Question: For “N-{(2S)-2-Amino-4-[{(1R)-1-[1-benzyl-4-(2,5-difluorophenyl)-1H-pyrrol-2-yl]-2,2-dimethyl propyl}(glycoloyl)amino]butanoyl}-L-glutamic acid/trifluoroacetic acid (1:1) [Example M25]”, which IC50 [1] is on record?
Answer: Its IC50 is at least 0.5 µM.

Question: And the “Papp (B-A)” value (Caco-2 cells)?
Answer: Its value is 8.1 nm/s.

Question: What about the IC50 (KPL4; growth inhibition) of the same molecule?
Answer: Its IC50 is at least 0.5 µM.
